Our source for the kcat values is patent publication US12667106B2, “Stabilized mutants of quorum quenching lactonase and use thereof in treatment of pathogens” (priority 2019, dated 2026).

Each structure is given as a SMILES string.

In experiment [1] the target is putative parathion hydrolase (PPH) from M. tuberculosis, variant PPH_R2:P8-D12, H171Y (H172Y in SEQ ID NO: 1 numbering; SEQ ID NO: 3), MBP fusion SEQ ID NO: 12 (Mycobacterium tuberculosis, UniProt P9WHN9, H168Y). The experiment is classed as biochemical. To be noted: pH 8.3.
For experiment [2], the target named is putative parathion hydrolase (PPH) from M. tuberculosis, variant PPH_R2:P4-D5, G58V (G59V in SEQ ID NO: 1 numbering; SEQ ID NO: 2), MBP fusion SEQ ID NO: 11 (Mycobacterium tuberculosis, UniProt P9WHN9, G55V). The experiment is classed as biochemical. To be noted: pH 8.3.

As a reminder, the kcat is the number of substrate molecules converted per active site and unit of time at saturation.

As for `CCCC(=O)CC(=O)N[C@H]1CCOC1=O` [C6-oxo-HSL, N-(3-oxo-hexanoyl)-homoserine lactone], the figures for the kcat in experiment [1] and in experiment [2] were 10.16 ± 1.46 s⁻¹ and 18.66 ± 1.16 s⁻¹, respectively.
